The subject of series [1] is porcine coronary model. Put plainly: Directly (ethanol dip) coated stents in a porcine coronary model. Type of series: in vivo. Conditions: direct coating. An excerpt: To get rid of the polymer, which remains always a concern when coating a drug on an endoluminal prosthesis, since several polymers have shown to be non biocompatible and to induce an inflammatory response leading to SMC proliferation and restenosis, the present inventor tried to coat melatonin directly to the surface of the endoluminal prosthesis. As endoluminal prosthesis use was made of a commercially available 316L stainless steel coronary stent (V-Flex Plus, 16 mm/3.0 mm, William Cook Europe) and the stent was dipped in a 20 mg/ml ethanol solution for 30 seconds. After removal the stent was air-dried using a warm laminar flow to evaporate the ethanol. Using this method a total melatonin load on the stent of 20 μg could be achieved. […] This could be explained by the 1) the potent free radical scavenging effect of melatonin, 2) the potent anti-inflammatory effect of melatonin, 3) maybe a direct effect on SMC proliferation, 4) the non toxic effect of melatonin on other mediators of the healing response.
In a next step the total load of melatonin was increased by using more concentrated melatonin/ethanol solutions. By doing so a maximum total load of 300 μg/ stent could be achieved.

Series [2] concerns coronary arteries of pigs. The series is described as follows: Probucol and Melatonin biological-oil coated stents implanted in porcine coronary arteries, histopathology and morphometry at 4 weeks. Type of series: in vivo, Domestic crossbred pigs. Conditions: oil-coated loaded stents; for AS: Area stenosis (= 100 * (1 − LA/IEL)) / Inflammation (peri-strut inflammation score 1-3, mean) / Injury (arterial injury score, Schwartz grade 0-3, mean) / NIH: Neointimal hyperplasia (= IEL − LA) / LA: Lumen area: 4 weeks follow-up; for LA: Lumen area: Probucol 447+/−56 μg, Melatonin 367+/−47 μg per stent; for effect on arterial injury and inflammatory response (in words): compared to bare and/or oil-only stents. How it is done: Domestic crossbred pigs of both sexes weighing 20-25 kg were used. They were fed with a standard natural grain diet without lipid or cholesterol supplementation throughout the study. All animals were treated and cared for in accordance with the Belgium National Institute of Health Guidelines for care and use of laboratory animals.
In this study, bare Jostent Flexmaster stents (n=8), Bare stents dipped in a Biological oil coating (Oil Only; n=7), Bare stents dipped in a Probucol/Biological oil coating solution resulting in a total Probucol load of 447+/−56 μg/per stent (Pro, n=7) and Bare stents dipped in a Melatinin/Biological oil coating solution resulting in a total Melatonin load of 367+/−47 μg/stent (Mela, n=8). Stents were implanted in the coronary arteries of 15 pigs. All pigs were followed for 4 weeks to evaluate the peri-strut inflammatory response and neointimal formation.
Surgical procedure and stent implantation in the coronary arteries were performed according to the method described by De Scheerder et al. in “Local angiopeptin delivery using coated stents reduces neointimal proliferation in overstretched porcine coronary arteries.” J. Inves. Cardiol. 8:215-222; 1996, and in “Experimental study of thrombogenicity and foreign body reaction induced by heparin-coated coronary stents.” Circulation 95:1549-1553; 1997. The guiding catheter was used as a reference to obtain an oversizing from 10 to 20%.
Coronary segments were carefully dissected together with a 1 cm minimum vessel segment both proximal and distal to the stent. The segments were fixed in a 10% formalin solution. The middle part of each stent was harvested for histopathologic analysis. Tissue specimens were embedded in a cold-polymerizing resin (Technovit 7100, Heraus Kulzer GmbH, and Wehrheim, Germany). Sections, 5 microns thick, were cut with a rotary heavy duty microtome HM 360 (Microm, Walldorf, Germany) equipped with a hard metal knife and stained with hematoxylin-eosin, elastic stain and phosphotungstic acid hematoxylin stain. Light microscopic examination was performed by an experienced pathologist who was blinded to the type of stent used. Injury of the arterial wall due to stent deployment (and eventually inflammation induced by the polymer) was evaluated for each stent filament and graded as described by Schwartz et al. • Grade 0=internal elastic membrane intact, media compressed but not lacerated; • Grade 1=internal elastic membrane lacerated; • Grade 2=media visibly lacerated; external elastic membrane compressed but intact; • Grade 3=large laceration of the media extending through the external elastic membrane or stent filament residing in the adventitia.
Inflammatory reaction at each stent filament was carefully examined, searching for inflammatory cells, and scored as followed: • 1=sparsely located histolymphocytes surrounding the stent filament; • 2=more densely located histolymphocytes covering the stent filament, but no lymphogranuloma and/or giant cells formation found; • 3=diffusely located histolymphocytes, lymphogranuloma and/or giant cells, also invading the media. • Mean score=sum of score for each filament/number of filament present.

Series [3] has as its system in-stent neointimal hyperplasia. The series is described as follows: Further studies with different total loading doses per stent, in-stent neointimal hyperplasia. In kind it is in vivo.
Series [4] relates to porcine coronary model. Put plainly: Oil/solvent emulsion coated stents (500 μg) in a porcine coronary model, up to 3 months. In kind it is in vivo. Conditions: oil/solvent emulsion coating, 500 μg melatonin per stent. How it is done:
(§1) In order to maintain significant melatonin concentrations for a longer period of time to obtain a durable anti-restenosis effect the present inventor has developed new methods to achieve a slower melatonin release. The drug was dissolved in a biocompatible emulsion of oil and a solvent wherein the drug is highly soluble. The stent was dipped in this emulsion several times and in between the different dipping steps air-dried using a warm laminar flow to evaporate the solvent and harden the drug/oil coating.
Using the same coating method, no effect of probucol was found.

The nature of series [5]: In-vitro release of drug from coated stent. In kind it is physicochemical. How it is done: (§2) A disavantage of the direct coating system is the fast release of the drug from the stent.
as §1

Series [6] in a line: In-vivo melatonin coronary vascular concentration after direct-coated stent. Conditions: direct coating.
Description: as §2

Entries after “also recorded” stand apart in the source; their conditions may differ.

Turning to `COc1ccc2[nH]cc(CCNC(C)=O)c2c1` [Melatonin, N-acetyl-5-methoxytryptamine], in the series with porcine coronary model [1] (20 μg per stent, follow-up after 5 days), the “biocompatibility / inflammation surrounding the struts on histological examination” value is listed as “without inducing any inflammation”. Moreover, the “effect on inflammatory response and neointimal hyperplasia” value in the series on porcine coronary model [1] (high dose, maximum total load 300 μg/stent) was “efficient blocking of inflammatory response and neointimal hyperplasia”. Moreover, in the series on porcine coronary model [1] (total load 20 μg per stent, after 4 weeks), the “decrease in neointimal hyperplasia compared to a bare stent” value stood at 26%. Besides, in series [2] (4 weeks), the “effect on neointimal hyperplasia compared to bare and oil-only stents (in words)” value is “significant decrease”; the “lumen area compared with the other groups (in words)” value is “larger than the other groups”; the “effect on arterial injury and inflammatory response (in words)” value is on record as “the injury score was dramatically decreased; also recorded: minimal inflammatory response”. For the same compound, in series [2], the “AS: Area stenosis (= 100 * (1 − LA/IEL))” value stood at 16±7%; the “Inflammation (peri-strut inflammation score 1-3, mean)” value stood at 1.00±0.00; the “Injury (arterial injury score, Schwartz grade 0-3, mean)” value is 0.08 ± 0.09; the “NIH: Neointimal hyperplasia (= IEL − LA)” value amounted to 0.89±0.28 mm2. In addition, the “LA: Lumen area” value in series [2] stood at 5.10 ± 1.40 mm2. The “effect on neointimal hyperplasia” value in series [3] (dose depending response, already observed for a dose of 0.5 μg/mm^2 stent area) is on record as “significant inhibition”. For the same compound, the “effect on peri-strut inflammation and neointimal hyperplasia” value in the series on porcine coronary model [4] was “Sustained inhibition of peri-strut inflammation and neointimal hyperplasia”. The same compound had an In-vitro release in series [5] (direct coating, within 24 hours) of 90%. For the same compound, the melatonin release period entry in series [5] (oil/solvent emulsion coating, total load 500 μg per stent) is “weeks instead of days”. Moreover, in series [6], the “duration of sufficient melatonin coronary vascular concentration” value was “up to 15 days”.

`CC(C)(Sc1cc(C(C)(C)C)c(O)c(C(C)(C)C)c1)Sc1cc(C(C)(C)C)c(O)c(C(C)(C)C)c1` [Probucol]: the “effect on inflammatory response and neointimal hyperplasia” value with porcine coronary model [1] (similar experiments as 20 μg melatonin stents) is on record as “did not result in a significant effect”. Besides, in series [2] (4 weeks), the “effect on neointimal hyperplasia compared to bare and oil-only stents (in words)” value is “no significant effect”; the “effect on arterial injury and inflammatory response (in words)” value was “could decrease arterial injury and inflammatory response”. Also, in series [2], the “AS: Area stenosis (= 100 * (1 − LA/IEL))” value is given as 24 ± 14%; the “Inflammation (peri-strut inflammation score 1-3, mean)” value is 1.03 ± 0.08; the “Injury (arterial injury score, Schwartz grade 0-3, mean)” value turned out to be 0.28 ± 0.20; the “NIH: Neointimal hyperplasia (= IEL − LA)” value is reported as 1.43 ± 0.77 mm2. In addition, in series [2], the “LA: Lumen area” value is listed as 4.46 ± 1.06 mm2. For the same compound, in series [2] (listed as Probutol), the “Inflammation (peri-strut inflammation score 1-3, mean)” value amounted to 1.03±0.08. Further, the “effect on in-stent neointimal hyperplasia” value in series [3] (Probucol total loading doses 10-2000 μg per stent) was “no significant effect”. The “effect on peri-strut inflammation and neointimal hyperplasia” value in the series with porcine coronary model [4] was “no effect”.

Values taken from patent US20070005124A1, “Endoluminal prosthesis comprising a therapeutic agent” (Blue Medical Devices B.V., priority 2003, published 2007).
